Measured values from US11779015B2, “Pesticide compositions” (FUNDACIÓ CENTRE DE REGULACIÓ GENÒMICA, priority 2017, dated 2023).
“Also recorded” adds a separate entry of the source.

How the values were obtained:
[1] = system: D. suzukii; test: Airborne toxicity petri dish assay, adult flies exposed to VOC vapours (FIG. 1A); assay type: in vivo, Drosophila suzukii; conditions: for time to 100% dead flies: monitored over 1 hour
Description: A selection of compounds according to the invention were tested for airborne toxicity to D. suzukii by exposing a population of adult D. suzukii flies to the vapours of the compound using an experimental set up as shown on FIG. 1A.
In particular, adult flies 2 were exposed to compositions 4 comprising one or more of a selection of VOCs according to the invention or a comparative example, in a petri dish 6. The compositions 4 were loaded onto the lid 6a of the petri dish 6 and the flies were placed into the base 6b of the dish, which was then covered by a sheet of plastic mesh netting 8 to avoid direct contact of the flies 2 with the compositions 4, before replacing the lid 6a.
[…] Four drops of 50 microlitres were dispensed into reinforcement rings (not shown) fixed on the inner surface of the petri dish lid 6a.
The experimental set up used was as described in relation to FIG. 1A.
The data is shown as averages±SEM based on 3 to 6 trials for each condition.

[2] = system: adult D. suzukii flies; test: Petri dish assay, dose-range 0.3 to 10% vol in paraffin oil, 24 h exposure (FIG. 3E); assay type: in vivo, Drosophila suzukii; conditions: for concentration at which toxicity is displayed (as low as): dose-range 0.3 to 10% vol in paraffin oil, 24 h exposure, adult D. suzukii; for Minimal concentration (%) to induce 100% morbidity/mortality in D. suzukii adults: paraffin oil, 24 h exposure (Example 2)
Text: Data are represented as mean proportion of dead flies, with counts separated between male (as indicated by ‘M’) and female (as indicated by ‘F’) flies. […] Data points marked NaN were not tested at the indicated concentration. The MEC column summarises the minimal effective concentration to induce 100% morbidity/mortality to adult D. suzukii flies.

[3] = system: honeybees (Apis mellifera); test: Airborne toxicity on honeybees in the petri dish assay; assay type: in vivo; conditions: paraffin oil, 24 hours
[4] = VOC at 10 M in paraffin oil, vapour exposure, 1 hour
[5] = VOC at 10 M in paraffin oil, vapour exposure

| Compound | airborne toxicity/lethality in the initial screen with a high dose (words) [1, 4] | further results |
| --- | --- | --- |
| CCOC(=O)c1ccccc1 [ethyl benzoate, Ethyl benzoate] | showed toxicity | – |
| COC(=O)C1CCCCC1 [methyl cyclohexanoate] | showed toxicity | – |
| CCCOC(=O)c1ccccc1 [propyl benzoate, Propyl benzoate] | showed toxicity | – |
| CCCCCC/C=C/C=O [E-2-nonenal] | showed toxicity | concentration at which toxicity is displayed (as low as) [2]: 2% |
| CCCCCCCCC/C=C/C=O [E-2-dodecenal] | showed toxicity | – |
| CC/C=C/C=O [(E)-2-pentenal] | showed toxicity | – |
| CC(C)OC(=O)C1CCCC1 [isopropyl cyclopentanecarboxylate, Isopropyl cyclopentanecarboxylate] | showed toxicity | – |
| CC1=C(O)C(=O)OC1C (centres unmarked) [4,5-Dimethyl-3-hydroxy-2,5-dihydrofuran-2-one, reference compound] | showed toxicity | – |
| CC=CC(=O)CC [4-hexen-3-one] | showed toxicity | Minimal concentration (%) to induce 100% morbidity/mortality in D. suzukii adults [2]: 3%; Percentage of dead honey bee adults (%) ([3]; applied concentration 3%): 0% |
| CCCC/C=C/C=C/C=O [(E,E)-2,4-nonadienal] | showed toxicity | concentration at which toxicity is displayed (as low as) [2]: 2%; Minimal concentration (%) to induce 100% morbidity/mortality in D. suzukii adults [2]: 2%; Percentage of dead honey bee adults (%) ([3]; applied concentration 2%): 0%; Percentage of dead honey bee adults (%) ([3]; applied concentration 5%): 0% |
| CCCCCCC=O [heptanal, Heptanal] | showed toxicity | – |
| CC/C=C\CC/C=C/C=O [(E)-2,(Z)-6-nonadienal, trans-2,cis-6-Nonadienal] | showed toxicity | Minimal concentration (%) to induce 100% morbidity/mortality in D. suzukii adults [2]: 3%; Percentage of dead honey bee adults (%) ([3]; applied concentration 3%): 10% |
| CCCCC/C=C/C=O [E-2-octenal] | showed toxicity | concentration at which toxicity is displayed (as low as) [2]: 2% |
| CCCC/C=C/C=O [(E)-2-heptenal] | showed toxicity | Minimal concentration (%) to induce 100% morbidity/mortality in D. suzukii adults [2]: 3%; Percentage of dead honey bee adults (%) ([3]; applied concentration 3%): 0% |
| C=CCOC(=O)C1=CCCC1 [allyl 1-cyclopentene-1-carboxylate, Allyl 1-cyclopentene-1-carboxylate] | showed toxicity | concentration at which toxicity is displayed (as low as) [2]: 0.3%; Minimal concentration (%) to induce 100% morbidity/mortality in D. suzukii adults [2]: 0.5%; Percentage of dead honey bee adults (%) ([3]; applied concentration 1%): 0% |
| CCCCC=O [pentanal, Pentanal] | showed toxicity | – |
| CCCCCCO [1-hexanol] | showed toxicity | – |
| CCCCCC(C)=O [2-heptanone] | showed toxicity | – |

| Compound | airborne toxicity/lethality in the initial screen with a high dose (words) [1, 4] | further results |
| --- | --- | --- |
| C=CC(C)(CCC=C(C)C)OC(=O)c1ccccc1 (centres unmarked) [linalyl benzoate, Linalyl benzoate, reference compound] | did not cause mortality; also recorded: not toxic | – |
| CCCCOC(=O)C1CCCC1 [butyl cyclopentanecarboxylate, Butyl cyclopentanecarboxylate] | showed toxicity | Minimal concentration (%) to induce 100% morbidity/mortality in D. suzukii adults [2]: 3%; Percentage of dead honey bee adults (%) ([3]; applied concentration 3%): 0% |
| CCCCCCC/C=C/C=O [E-2-decenal] | – | Percentage of dead honey bee adults (%) ([3]; applied concentration 2%): 0% |
| CCC=C(C)C=O [2-methyl-2-pentenal] | showed toxicity | – |
| CCCCCOC(=O)c1ccccc1 [pentyl benzoate, Pentyl benzoate] | showed toxicity | time to 100% dead flies [1, 5]: an hour |
| CCCCCCCC/C=C/C=O [E-2-undecenal] | showed toxicity | – |
| O=C(OCc1ccccc1)c1ccccc1 [benzyl benzoate, Benzyl benzoate, reference compound] | did not cause mortality | airborne toxicity/lethality in the initial screen with a high dose (words) ([1]; VOC at 10 M in paraffin oil, vapour exposure, 1 hour, listed as Benzyl benzoate): not toxic |
| O=C(OCc1ccccc1)c1ccccc1O [benzyl salicylate, Benzyl salicylate, reference compound] | did not cause mortality; also recorded: not toxic | – |
| CCC(C)C(=O)OC (centres unmarked) [methyl 2-methylbutyrate, Methyl 2-methyl butyrate] | showed toxicity | – |
| COC(=O)C1CCCC1 [methyl cyclopentanecarboxylate, Methyl cyclopentanecarboxylate] | showed toxicity | – |
| CCOC(=O)Cc1ccccc1 [ethyl phenyl acetate, Ethyl phenylacetate] | showed toxicity | time to 100% dead flies [1, 5]: half an hour |
| CCCCCCCCC=O [nonanal, Nonanal] | showed toxicity | Minimal concentration (%) to induce 100% morbidity/mortality in D. suzukii adults [2]: 3%; Percentage of dead honey bee adults (%) ([3]; applied concentration 3%): 0% |
| COC(=O)c1ccccc1O [methyl salicylate] | showed toxicity | – |
| CCCCCCCCCC/C=C/C=O [E-2-tridecenal] | showed toxicity | time to 100% dead flies [1, 5]: an hour |
| CC/C=C/CCO [E-3-hexenol] | – | airborne toxicity/lethality in the initial screen with a high dose (words) ([1]; in vivo): showed toxicity |
| CC(=O)c1ccccc1 [acetophenone, Acetophenone] | showed toxicity | – |
| O=Cc1ccccc1 [benzaldehyde, Benzaldehyde] | showed toxicity | – |
| CCCCCCCC=O [octanal, Octanal] | showed toxicity | – |
